Data: ChEMBL document CHEMBL1156658, “Antifungal cyclic depsipeptide, eujavanicin A, isolated from Eupenicillium javanicum” (2008)
Calls of active or inactive are those of the source. The calls are words filed in the database; no cut-off is given here. Non-standard residues stand in square brackets, D forms with d. Residues, ends and D or L forms follow the SMILES beside them. NMeI = CC[C@H](C)[C@H](NC)C(=O)O; NMeD = CN[C@@H](CC(=O)O)C(=O)O; NMeV = CN[C@H](C(=O)O)C(C)C; Pip = O=C(O)[C@@H]1CCCCN1; Lac = C[C@H](O)C(=O)O

What was measured:
Aspergillus fumigatus [1] = assay: Antifungal activity against Aspergillus fumigatus; type: functional, organism-based
Candida albicans [2] = assay: Antimicrobial activity against Candida albicans; type: functional, organism-based
Cryptococcus neoformans [3] = assay: Antimicrobial activity against Cryptococcus neoformans; type: functional, organism-based
Aspergillus niger [4] = assay: Antifungal activity against Aspergillus niger; type: functional, organism-based
Bacillus subtilis [5] = assay: Antibacterial activity against Bacillus subtilis NBRC3134 at 100 ug/disk by paper disk method; type: functional, organism-based
Staphylococcus aureus [6] = assay: Antibacterial activity against Staphylococcus aureus […] at 100 ug/disk by paper disk method; type: functional, organism-based
Salmonella enteritidis [7] = assay: Antibacterial activity against Salmonella enteritidis NBRC3313 at 100 ug/disk by paper disk method; type: functional, organism-based; details: Salmonella enterica subsp. enterica serovar Enteritidis
Escherichia coli [8] = assay: Antibacterial activity against Escherichia coli NBRC14237 at 100 ug/disk by paper disk method; type: functional, organism-based
Aspergillus niger [9] = assay: Antifungal activity against Aspergillus niger at 50 ug/disk by paper disk method; type: functional, organism-based
Escherichia coli [10] = assay: Antibacterial activity against Escherichia coli NBRC14237 assessed as zone of inhibition at 50 ug/disk by paper disk method; type: functional, organism-based
Salmonella enteritidis [11] = assay: Antibacterial activity against Salmonella enteritidis NBRC3313 assessed as zone of inhibition at 50 ug/disk by paper disk method; type: functional, organism-based; details: Salmonella enterica subsp. enterica serovar Enteritidis
Candida albicans [12] = assay: Antimicrobial activity against Candida albicans at 50 ug/disk by paper disk method; type: functional, organism-based
Staphylococcus aureus [13] = assay: Antibacterial activity against Staphylococcus aureus […] assessed as zone of inhibition at 50 ug/disk by paper disk method; type: functional, organism-based
Cryptococcus neoformans [14] = assay: Antimicrobial activity against Cryptococcus neoformans at 50 ug/disk by paper disk method; type: functional, organism-based
Bacillus subtilis [15] = assay: Antibacterial activity against Bacillus subtilis NBRC3134 assessed as zone of inhibition at 50 ug/disk by paper disk method; type: functional, organism-based
Aspergillus fumigatus [16] = assay: Antifungal activity against Aspergillus fumigatus assessed as zone of inhibition at 6.25 ug/disk by paper disk method; type: functional; details: read-out: IZ

Structure (SMILES) | Activity (Aspergillus fumigatus [1]) | Activity (Candida albicans [2]) | Activity (Cryptococcus neoformans [3]) | Activity (Aspergillus niger [4]) | Activity (Bacillus subtilis [5]) | Activity (Staphylococcus aureus [6]) | Activity (Salmonella enteritidis [7]) | Activity (Escherichia coli [8]) | Activity (Aspergillus niger [9]) | Activity (Escherichia coli [10]) | Activity (Salmonella enteritidis [11]) | Activity (Candida albicans [12]) | Activity (Staphylococcus aureus [13]) | Activity (Cryptococcus neoformans [14]) | Activity (Bacillus subtilis [15]) | zone of inhibition at 6.25 µg/disc (Aspergillus fumigatus [16])
CC[C@H](C)[C@H]1C(=O)N[C@@H](CC(=O)OC)C(=O)N(C)[C@@H](C(C)C)C(=O)N[C@@H](CC(C)C)C(=O)O[C@@H](C)C(=O)N2CCCC[C@H]2C(=O)N(C)[C@@H](C(C)C)C(=O)N[C@@H](C(C)C)C(=O)N(C)[C@@H](CC(=O)OC)C(=O)N(C)[C@@H]([C@@H](C)CC)C(=O)N1C (cyclo(D(OMe)[NMeV]L[Lac][Pip][NMeV]V[NMeD](OMe)[NMeI][NMeI])) | inactive | inactive | inactive | inactive | inactive | inactive | inactive | inactive | – | – | – | – | – | – | – | –
CC[C@H](C)[C@H]1C(=O)N[C@@H](CC(=O)O)C(=O)N(C)[C@@H](C(C)C)C(=O)N[C@@H](CC(C)C)C(=O)O[C@@H](C)C(=O)N2CCCC[C@H]2C(=O)N(C)[C@@H](C(C)C)C(=O)N[C@@H](C(C)C)C(=O)N(C)[C@@H](CC(=O)O)C(=O)N(C)[C@@H]([C@@H](C)CC)C(=O)N1C [EUJAVANICIN A] (cyclo(D[NMeV]L[Lac][Pip][NMeV]V[NMeD][NMeI][NMeI])) | – | – | – | – | inactive | inactive | inactive | inactive | inactive | inactive | inactive | inactive | inactive | inactive | inactive | 23 mm
